The text below walks through data of ChEMBL document CHEMBL1201862, “PubChem BioAssay data set” (2004).

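Briefly, cells in 96-well plates were exposed to five compound concentrations for 48 h, and endpoints were estimated by linear interpolation. GI50: concentration for 50% inhibition of growth.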 Calls of active or inactive are those of the source. Cut-off read from the data, not from the text of the source: active = GI50 up to about 1.1 µM and inactive = higher.

Test in all cases: NCI tumour cell line growth inhibition, 48 h
The subject of test [1] is TK-10.
For test [2], the system named is 786-0.
The subject of test [3] is MDA-MB-435.
The subject of test [4] is SF-268.
Test [5] concerns COLO 205.
Test [6] has as its system SN12C.
Test [7] concerns LOX IMVI.
Test [8] deals with HCT-116.
Test [9] concerns HOP-92.
Test [10] concerns SNB-75.
Test [11] relates to SNB-19.
The test system of test [12] is HCT-15.
For test [13], the system named is SW-620.
The subject of test [14] is MOLT-4.
In test [15] the test system is HT-29.
The subject of test [16] is SK-MEL-5.
Test [17] concerns HOP-62.
Test [18] deals with T47D.
The subject of test [19] is HCC 2998.
Test [20] deals with NCI-H23.

On to `CC1(C)C[C@H]2C3=CC[C@@H]4[C@@]5(C)CC[C@H](O)C(C)(C)[C@@H]5CC[C@@]4(C)[C@]3(C)C[C@@H](O)[C@@]23C[C@@H]1OC3=O`, for which the GI50 in [1] is > 100 µM (inactive); in test [2] it was > 100 µM (inactive); in test [3] it was > 100 µM (inactive); in test [4], > 100 µM (inactive); in test [5], 44.8 µM (inactive); in test [6], > 100 µM (inactive). Besides, the GI50 is > 100 µM (inactive) in [7]; 74 µM (inactive) in test [8]; > 100 µM (inactive) in [9]; > 100 µM (inactive) in test [10]; > 100 µM (inactive) in test [11]; above 100 µM in test [12]. Besides, the GI50 in test [13] was > 100 µM (inactive); in [14], 49.2 µM (inactive); in test [15], 50.2 µM (inactive); in test [16], 55.2 µM (inactive); in [17], > 100 µM (inactive); in test [18] it was 56.6 µM (inactive). Besides, the GI50 in test [19] is 96.8 µM (inactive); in test [20], > 100 µM (inactive).

For `CC1=C/C(=N\NC(N)=S)C(C(O)(C(F)(F)F)C(F)(F)F)C(C)(C)C1` (stereo not given), the GI50 in [1], in [2], in test [3], in [4], in test [5] and in test [6] was > 10 µM (inactive) in each case. Moreover, the GI50 was > 10 µM (inactive) in test [7]; > 10 µM (inactive) in [8]; > 10 µM (inactive) in [9]; > 10 µM (inactive) in test [10]; > 10 µM (inactive) in test [11]; above 10 µM in test [12]. Also, the GI50 in test [13], in test [14], in [15], in [16], in test [17] and in [18] was > 10 µM (inactive) in each case. The GI50 in test [19] and in [20] was > 10 µM (inactive) each time.

Turning to `C[C@H]1C[C@H](C)c2ccccc2N(C)/C1=N\c1ccccc1`, the GI50 in [1] is 18.6 µM (inactive); in [2], 22.9 µM (inactive); in [3], 20.4 µM (inactive); in test [4], 56 µM (inactive); in test [5], 18.4 µM (inactive); in [6], 36.6 µM (inactive). The GI50 in [7] was 13.7 µM (inactive); in test [8] it was 13.3 µM (inactive); in [9], 8.51 µM (inactive); in [10] it was 57.1 µM (inactive); in test [11], 37.8 µM (inactive); in test [12], 37.2 µM. Also, the GI50 in test [13] was 61.5 µM (inactive); in [14], 22.5 µM (inactive); in test [15] it was 4.58 µM (inactive); in [16] it was 16.7 µM (inactive); in [17] it was 19.3 µM (inactive); in test [18], 32.8 µM (inactive). Moreover, the values for the GI50 in test [19] and in [20] were 39.2 µM (inactive) and 20.4 µM (inactive), respectively.

Regarding `c1cc(CSP234N5CCN2CCN3CCN4CC5)ccc1CSP123N4CCN1CCN2CCN3CC4`, the GI50 in [1] was > 100 µM (inactive); in test [2], > 100 µM (inactive); in test [3] it was 97.3 µM (inactive); in test [4] it was > 100 µM (inactive); in test [5] it was > 100 µM (inactive); in [6], > 100 µM (inactive). Also, the GI50 was 49.1 µM (inactive) in [7]; 72.8 µM (inactive) in test [8]; 92.3 µM (inactive) in test [9]; > 100 µM (inactive) in test [10]; > 100 µM (inactive) in test [11]; above 100 µM in test [12]. The GI50 in [13] is > 100 µM (inactive); in test [14] it was 91.4 µM (inactive); in test [15] it was 53.2 µM (inactive); in [16], > 100 µM (inactive); in [17], > 100 µM (inactive); in test [18] it was > 100 µM (inactive). In addition, the GI50 in test [19] and in [20] was > 100 µM (inactive) throughout.

Consider `O=C1CSC(c2ccc(Cl)cc2)N1c1ccc(Oc2ccc(Cl)cc2)c(Cl)c1` (stereo not given), for which the GI50 in test [1] is 18.7 µM (inactive); in test [2] it was 16.8 µM (inactive); in test [3] it was 17.6 µM (inactive); in test [4] it was 10.7 µM (inactive); in [5], 18.2 µM (inactive); in [6] it was 20 µM (inactive). The GI50 in test [7] is 15.2 µM (inactive); in test [8], 15.7 µM (inactive); in test [9], 15.7 µM (inactive); in [10] it was 12.3 µM (inactive); in [11], 15.6 µM (inactive); in test [12], 15.8 µM. Further, the GI50 in [13] is 18.3 µM (inactive); in test [14], 14.2 µM (inactive); in test [15], 18.6 µM (inactive); in test [16] it was 17.1 µM (inactive); in test [17] it was 21.3 µM (inactive); in test [18], 10.7 µM (inactive). Besides, the GI50 in test [19] is 17.2 µM (inactive); in [20], 16.9 µM (inactive).

`O=C(NC(OCc1ccccc1)(C(F)(F)F)C(F)(F)F)OCc1ccccc1`: the GI50 in [1] was 7.8 µM (inactive); in test [2], 16.5 µM (inactive); in test [3] it was 17.3 µM (inactive); in test [4], 18.2 µM (inactive); in test [5] it was 17.8 µM (inactive); in test [6] it was 15.9 µM (inactive). The GI50 is 14.5 µM (inactive) in test [7]; 16.4 µM (inactive) in test [8]; 14.7 µM (inactive) in test [9]; 15.6 µM (inactive) in test [10]; 15.8 µM (inactive) in test [11]; 13.8 µM in [12]. In addition, the GI50 in test [13] was 17.3 µM (inactive); in test [14], 18.1 µM (inactive); in [15], 18 µM (inactive); in [16], 15.8 µM (inactive); in [17], 15.1 µM (inactive); in test [18], 15.7 µM (inactive). The GI50 in test [19] was 15.4 µM (inactive); in test [20] it was 12.9 µM (inactive).

On to `Cc1sc2nc3n(c(=O)c2c1C)N=CN(c1ccc(F)cc1)C3`, for which the GI50 in [1] was > 100 µM (inactive); in test [2] it was 19.5 µM (inactive); in [3] it was > 100 µM (inactive); in [4] it was 81.7 µM (inactive); in test [5], > 100 µM (inactive); in test [6], 32.9 µM (inactive). Besides, the GI50 in [7] is > 100 µM (inactive); in test [8], 23.8 µM (inactive); in test [9], 24.2 µM (inactive); in test [10], 42.4 µM (inactive); in [11] it was 38 µM (inactive); in test [12], above 100 µM. Further, the GI50 is > 100 µM (inactive) in [13]; > 100 µM (inactive) in test [14]; > 100 µM (inactive) in test [15]; > 100 µM (inactive) in test [16]; 23.8 µM (inactive) in [17]; > 100 µM (inactive) in [18]. Also, the GI50 is 59.6 µM (inactive) in test [19] and > 100 µM (inactive) in test [20].

Take `O=C1OC(c2ccccc2)=N/C1=C\c1ccc([N+](=O)[O-])cc1`: the GI50 in test [1] is 28.8 µM (inactive); in test [2], 26.9 µM (inactive); in test [3], > 100 µM (inactive); in test [4], 32.8 µM (inactive); in test [5], > 100 µM (inactive); in test [6] it was > 100 µM (inactive). Besides, the GI50 in [7] was 26.4 µM (inactive); in test [8] it was 98.6 µM (inactive); in test [9], 16.1 µM (inactive); in test [10], 22.9 µM (inactive); in test [11], 40.6 µM (inactive); in test [12], above 100 µM. Further, the GI50 in test [13] is > 100 µM (inactive); in [14], 15.1 µM (inactive); in test [15], > 100 µM (inactive); in test [16], 66.8 µM (inactive); in test [17], 30.1 µM (inactive); in test [18] it was 22.3 µM (inactive). Also, the GI50 in [19] was > 100 µM (inactive); in test [20], 24.5 µM (inactive).

As to `CCCCCOC(=O)c1cc2cc(CCl)ccc2oc1=O`, the GI50 is 0.957 µM (active) in test [1]; 3.02 µM (inactive) in test [2]; 1.85 µM (inactive) in test [3]; 13.2 µM (inactive) in test [4]; 2.36 µM (inactive) in test [5]; 9.59 µM (inactive) in test [6]. For the same molecule, the GI50 is 14.4 µM (inactive) in [7]; 10.1 µM (inactive) in test [8]; 2.62 µM (inactive) in [9]; 8.22 µM (inactive) in [10]; 18.7 µM (inactive) in [11]; 3.69 µM in test [12]. Also, the GI50 in test [13] is 12.1 µM (inactive); in test [14] it was 7.33 µM (inactive); in test [15], 7.01 µM (inactive); in [16], 2.62 µM (inactive); in test [17], 8.28 µM (inactive); in [18], 4.55 µM (inactive). Besides, the figures for the GI50 in [19] and in test [20] were 14.9 µM (inactive) and 1.5 µM (inactive), respectively.

In the case of `CN(CCC#N)c1ccc(/C=C2\SC(=S)NC2=O)cc1`, the GI50 is 49.7 µM (inactive) in test [1]; 34.8 µM (inactive) in [2]; 31.6 µM (inactive) in [3]; 63.1 µM (inactive) in test [4]; 48.2 µM (inactive) in test [5]; 80.4 µM (inactive) in [6]. For the same molecule, the GI50 in test [7] is 8.2 µM (inactive); in test [8], 29.2 µM (inactive); in test [9] it was 22.6 µM (inactive); in [10] it was 35 µM (inactive); in test [11], 71 µM (inactive); in test [12], 48.2 µM. Moreover, the GI50 was 58.2 µM (inactive) in test [13]; 42 µM (inactive) in test [14]; 87.1 µM (inactive) in [15]; 52 µM (inactive) in test [16]; 41.3 µM (inactive) in test [17]; 51.2 µM (inactive) in [18]. Also, the GI50 in test [19] was 51.6 µM (inactive); in [20], 39.5 µM (inactive).
